The target in assay [1] is T1, hGlyR-α1 (Homo sapiens, UniProt P23415).
T1 sequence (P23415 29-457): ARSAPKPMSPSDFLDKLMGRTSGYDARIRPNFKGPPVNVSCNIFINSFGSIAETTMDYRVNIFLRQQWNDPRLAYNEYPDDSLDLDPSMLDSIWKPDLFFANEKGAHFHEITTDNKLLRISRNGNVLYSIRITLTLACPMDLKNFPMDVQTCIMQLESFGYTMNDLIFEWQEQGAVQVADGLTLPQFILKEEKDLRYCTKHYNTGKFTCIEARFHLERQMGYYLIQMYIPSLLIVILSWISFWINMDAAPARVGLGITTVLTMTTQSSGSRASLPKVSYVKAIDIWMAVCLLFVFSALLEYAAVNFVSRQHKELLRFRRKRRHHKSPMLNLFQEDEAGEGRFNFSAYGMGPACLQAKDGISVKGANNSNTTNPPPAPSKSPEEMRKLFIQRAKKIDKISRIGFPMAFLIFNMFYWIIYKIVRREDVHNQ
Format: cell-based. The following applies: for potentiation effect on the channel current (representative traces): 10 μM modulator, glycine EC5, Figure 5a; for potentiation up to the maximum tested concentration: up to 10 μM, glycine EC5.

Assay [2] relates to α7nAChR. The following applies: previous finding; cited from earlier work.

The source of these data is publication PMC4414066 (Journal of medicinal chemistry, 2015).

`Cc1nc2c([nH]1)-c1ccccc1N(C(=O)c1ccc(NC(=O)c3ccccc3-c3ccccc3)cc1)CC2` [Conivaptan]: in assay [1], the “potentiation effect on the channel current (representative traces)” value was “no potentiation” and the “potentiation up to the maximum tested concentration” value is on record as “did not show potentiation”.

Consider `O=c1[nH]c2ccccc2n1C1CCN(CCCC(c2ccc(F)cc2)c2ccc(F)cc2)CC1` [Pimozide], for which, in assay [1], the “potentiation effect on the channel current (representative traces)” value is “much greater potentiation effect on the channel current than THC”.

In the case of `CCCCCc1cc(O)c2c(c1)OC(C)(C)[C@@H]1CCC(C)=C[C@@H]21` [THC, Δ^9-tetrahydrocannabinol], in assay [2], the “effect on α7nAChR function” value is reported as “little effect”.

With `COc1cc(OC)c(NC(=O)Nc2cc(C)on2)cc1Cl` [PNU-120596], the “potentiation up to the maximum tested concentration” value in assay [1] was “did not show potentiation”.
